Experiments:
type-1 site of NiR M150G [1] = molecular target: T1, type-1 site of NiR M150G (Alcaligenes faecalis, UniProt P38501, M186G); assay: biochemical; assay type: binding, A. faecalis S-6
T1 construct: His tag (C, cleaved yes); made in house
Description: Spectroscopy and assays—The spectrophotometer was a Perkin Elmer Instruments Lambda 800.

NiR M150G = molecular target: T2, NiR M150G (Alcaligenes faecalis, UniProt P38501, M186G); assay: Activity assay monitoring oxidation of pseudoazurin, NiR M150G with external ligands; assay type: biochemical, A. faecalis S-6; settings: for effect of external ligand on catalytic activity of NiR M150G: in words; for kcat^sat of NiR M150G saturated with external ligand: pseudoazurin 275-325 μM, nitrite 5 mM, 50 mM Mops pH 7.0
T2 construct: His tag (C, cleaved yes); made in house
Method: (§1) Activity assays were carried out by monitoring the oxidation of pseudoazurin as described (3). The concentrations of the electron donor pseudoazurin (275-325 μM) and the electron acceptor nitrite (5 mM) were saturating. The concentration of NiR was typically 1 nM. The buffer for activity assays was always 50 mM Mops pH 7.0. Whenever using volatile compounds, the cuvette was sealed with a PTFE stopper. All reported activities were calculated from initial rates. Apparent dissociation constants (KD^app) were obtained from a least-squares fit of activity (v) versus ligand concentration to v=v^NoLigand+Δv×[L]/(KD^app+[L]). The meaning of KD^app will be explained in the Discussion section.

type-1 site of NiR M150G [2] = molecular target: T1, type-1 site of NiR M150G; assay type: binding, A. faecalis S-6; settings: versus NHE, NiR M150G with external ligand bound, interpreted as upper limit
Method: Potentiometric titrations—Potentiometric titrations were carried out as described by Dutton (47) in a cuvette held at 298 K in 100 mM potassium phosphate pH 7.0. The NiR concentration was typically 40 mM. Diaminodurol (2,3,5,6-tetramethyl-1,4-phenylenediamine) was used as a redox mediator at 100-200 μM. Potassium ferricyanide and sodium dithionite were used to change the potential of the solution. Visible absorption and the potential of the solution were monitored until both were stable. Spectra were recorded in the range of 510-800 nm since diaminodurol gives negligible absorbance in this region.
The recorded spectra were integrated using a routine written in Igor Pro (WaveMetrics Inc.). For base line correction this routine approximated the scattering contributions (due to aggregated protein) either by a linear approximation or by a method described elsewhere (48). […] The integrated absorbance versus potential was fitted to the Nernst equation with the number of electrons held at one. […]
in which EM^NL is the reduction potential without ligand, [L] denotes the free ligand concentration, KD^ox and KD^red are the ligand dissociation constants from the oxidized and reduced type-1 site respectively, R is the gas constant, F is the Faraday constant and T is the absolute temperature. […] The midpoint potential of the type-1 site with the external ligand bound (EM^L) was calculated from equation 2. […]

wt NiR = molecular target: T3, wt NiR (Alcaligenes faecalis, UniProt P38501); assay: Activity assay monitoring oxidation of pseudoazurin, wt NiR with external ligands; assay type: biochemical, A. faecalis S-6; settings: for effect of external ligand on catalytic activity of wt NiR: in words
T3 construct: His tag (C, cleaved yes); made in house
Method: as §1

pseudoazurin [3] = molecular target: T4, pseudoazurin (UniProt P04377)
T4 sequence: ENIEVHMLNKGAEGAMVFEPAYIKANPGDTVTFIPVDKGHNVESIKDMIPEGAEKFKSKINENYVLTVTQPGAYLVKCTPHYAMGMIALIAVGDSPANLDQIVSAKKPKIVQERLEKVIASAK

pseudoazurin, P04377 = molecular target: T5, pseudoazurin, P04377
T5 chain: T4 sequence

pseudoazurin [4] = assay: Catalytic activity of NiR variants with the physiological electron donor pseudoazurin and nitrite; assay type: biochemical, A. faecalis S-6; settings: no external ligand; pseudoazurin 275-325 μM, nitrite 5 mM, 50 mM Mops pH 7.0
Method: as §1

[5] = in words; cited from earlier work

T1 sequence (P38501 other isoform, or with tags, fused parts or gaps M186G): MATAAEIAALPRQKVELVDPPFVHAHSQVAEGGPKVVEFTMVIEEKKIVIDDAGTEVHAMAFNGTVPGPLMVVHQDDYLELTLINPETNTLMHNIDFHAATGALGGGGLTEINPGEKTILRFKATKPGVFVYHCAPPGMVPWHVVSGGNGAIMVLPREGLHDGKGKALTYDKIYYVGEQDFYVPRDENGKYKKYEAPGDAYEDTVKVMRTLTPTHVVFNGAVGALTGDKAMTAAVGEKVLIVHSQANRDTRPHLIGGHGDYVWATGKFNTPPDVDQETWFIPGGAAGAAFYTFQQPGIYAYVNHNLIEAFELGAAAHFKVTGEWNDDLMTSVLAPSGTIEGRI
T2 sequence (P38501 other isoform, or with tags, fused parts or gaps M186G): as above

Molecule: Cc1cscn1 [4-methylthiazole]
- Kd (type-1 site of NiR M150G [1]): 22 ± 3 mM

Molecule: CC(N)=O [acetamide]
- Kd (type-1 site of NiR M150G [1]): 71 ± 3 mM
- effect of external ligand on catalytic activity of NiR M150G (NiR M150G): restored the activity up to the level of wt NiR
- kcat^sat of NiR M150G saturated with external ligand (NiR M150G): 374 ± 28 s⁻¹
- fitted reduction potential with ligand bound (EM^L) (type-1 site of NiR M150G [2]): < 225 mV

Molecule: CC#N [acetonitrile]
- Kd (type-1 site of NiR M150G [1]): 71.5 ± 7.3 mM
- kcat^sat of NiR M150G saturated with external ligand (NiR M150G): >390^A s^−1
- increase of catalytic activity (wt NiR; wt NiR): 50%

Molecule: CSC [dimethylsulfide]
- Kd (type-1 site of NiR M150G [1]): 21 ± 4 mM
- Kd (NiR M150G): 34 ± 7 mM
- effect of external ligand on catalytic activity of NiR M150G (NiR M150G): restored the activity up to the level of wt NiR
- kcat^sat of NiR M150G saturated with external ligand (NiR M150G): 373 ± 22 s⁻¹

Molecule: CCSC [ethylmethylsulfide]
- Kd (type-1 site of NiR M150G [1]): 14 ± 6 mM
- Kd (NiR M150G): > 73 mM
- effect of external ligand on catalytic activity of NiR M150G (NiR M150G): activity doubled
- kcat^sat of NiR M150G saturated with external ligand (NiR M150G): >292 s⁻¹
- effect of external ligand on catalytic activity of wt NiR (wt NiR): constant activity

Molecule: NC=O [formamide]
- effect of external ligand on catalytic activity of NiR M150G (NiR M150G): activity doubled
- kcat^sat of NiR M150G saturated with external ligand (NiR M150G): >255 s⁻¹
- effect of external ligand on catalytic activity of wt NiR (wt NiR): constant activity

Molecule: c1c[nH]cn1 [imidazole]
- Kd (type-1 site of NiR M150G [1]): 52 ± 3 mM
- rate of slow spectral change (absorption at 430 nm versus time, single exponential) (type-1 site of NiR M150G [1]; NiR M150G with imidazole 260 mM, 25° C.): 0.823 ± 0.003 h⁻¹
- effect of external ligand on catalytic activity of NiR M150G (NiR M150G): decreased in activity
- effect of external ligand on catalytic activity of wt NiR (wt NiR): decreased in activity

Molecule: c1ccncc1 [pyridine]
- fitted reduction potential with ligand bound (EM^L) (type-1 site of NiR M150G [2]): < 245 mV

Molecule: nitrite reductase M150G from Alcaligenes faecalis S-6
- kcat^sat (oxidation of pseudoazurin, no external ligand) (pseudoazurin [3]): 133 s⁻¹
- kcat^sat (oxidation of pseudoazurin, saturated with acetamide) (pseudoazurin [3]): 374 s⁻¹
- kcat^sat (oxidation of pseudoazurin, saturated with dimethylsulfide) (pseudoazurin [3]): 373 s⁻¹
- kcat^sat (oxidation of pseudoazurin, with acetonitrile) (pseudoazurin [3]): >390^A
- kcat^sat (oxidation of pseudoazurin, with ethylmethylsulfide) (pseudoazurin [3]): > 292 s⁻¹
- kcat^sat (oxidation of pseudoazurin, with formamide) (pseudoazurin [3]): > 255 s⁻¹

Molecule: nitrite reductase M150H from Alcaligenes faecalis S-6
- kcat^sat (oxidation of pseudoazurin, no external ligand) (pseudoazurin [3]): 0.099 s⁻¹

Molecule: nitrite reductase M150T from Alcaligenes faecalis S-6
- kcat^sat (oxidation of pseudoazurin, no external ligand) (pseudoazurin [3]): 126 s⁻¹

B1: wild-type Cu-containing nitrite reductase from Alcaligenes faecalis S-6 (protein)
chain: QGAVRKATAAEIAALPRQKVELVDPPFVHAHSQVAEGGPKVVEFTMVIEEKKIVIDDAGTEVHAMAFNGTVPGPLMVVHQDDYLELTLINPETNTLMHNIDFHAATGALGGGGLTEINPGEKTILRFKATKPGVFVYHCAPPGMVPWHVVSGMNGAIMVLPREGLHDGKGKALTYDKIYYVGEQDFYVPRDENGKYKKYEAPGDAYEDTVKVMRTLTPTHVVFNGAVGALTGDKAMTAAVGEKVLIVHSQANRDTRPHLIGGHGDYVWATGKFNTPPDVDQETWFIPGGAAGAAFYTFQQPGIYAYVNHNLIEAFELGAAAHFKVTGEWNDDLMTSVLAPSGT
- kcat^sat (oxidation of pseudoazurin, no external ligand) (pseudoazurin, P04377): 416 s⁻¹
- kcat^sat (pseudoazurin [4]): 416 ± 10 s⁻¹

B2: Achromobacter cycloclastes NiR M150Q: literature Met150Gln mutant of Achromobacter cycloclastes nitrite reductase (protein, UniProt P25006 39-378, looked up, variant M150Q)
Copper-containing nitrite …: AAGAAPVDISTLPRVKVDLVKPPFVHAHDQVAKTGPRVVEFTMTIEEKKLVIDREGTEIHAMTFNGSVPGPLMVVHENDYVELRLINPDTNTLLHNIDFHAATGALGGGALTQVNPGEETTLRFKATKPGVFVYHCAPEGMVPWHVTSGQNGAIMVLPRDGLKDEKGQPLTYDKIYYVGEQDFYVPKDEAGNYKKYETPGEAYEDAVKAMRTLTPTHIVFNGAVGALTGDHALTAAVGERVLVVHSQANRDTRPHLIGGHGDYVWATGKFRNPPDLDQETWLIPGGTAGAAFYTFRQPGVYAYVNHNLIEAFELGAAGHFKVTGEWNDDLMTSVVKPASM
- electron transfer rate (literature) [5]: decreased below the detection limit

Reference: patent US20100167311A1, “Oxidoreductases and Processes Utilising Such Enzymes” (priority 2006, published 2010)
